In article PMC7934871 (JCI Insight, 2021):

Tests used:
[1] = test system: STAT3-regulated genes; assay: Expression of STAT3 targets in HCT116 cells (Western blotting, qPCR); assay type: cell-based, human
Text: Figure 3 PS-acet.-STAT3 peptide inhibits STAT3 activity and downregulates the expression of STAT3 targets. (A) Downregulation of STAT3 activity and its downstream target proteins shown in human HCT116 colorectal cancer cells by Western blotting (data represent 1 of the 3 experiments, n = 3). PO-acet.-STAT3 and PS-STAT3-K685R peptides were used in parallel as controls. (B) STAT3 inhibition regulated the expression of proliferation and apoptotic genes, assessed by real-time quantitative PCR. Data present mean ± SD, n = 3 independent experiments, 1-way ANOVA; ***P < 0.005; **P < 0.01. […] For p53 promoter assay, data represent 3 replicates in 3 independent experiments (n = 9). […]
Whole cell lysates or tissue homogenates were prepared by using RIPA lysis buffer (50 mM Tris at pH 7.4, 150 mM NaCl, 1 mM EDTA, 0.5% NP-40, 1 mM NaF, 15% glycerol, and 20 mM β-glycerophosphate). […] Protein amounts were determined by BCA using a Thermo Fisher Scientific kit. […]
Total RNA was extracted from cultured or tumor tissues using RNeasy kit (QIAGEN), according to manufacturer’s instruction. After cDNA synthesis using iScript cDNA Synthesis kit (Bio-Rad), samples were analyzed using pairs of primers specific for CASP9, CASP3, CASP8, BIRC5, BCL2L1, MYC, TP53, VEGF, IL1B, SERPIN3, FGA, CDK4, CCND2, CDKN2A, CDKN2B, GADD45A, mCD274, mMmp9, and mBirc5, as indicated. […]

[2] = biological target: T1, STAT3-exportin 7 interaction (Homo sapiens, UniProt Q9UIA9); assay: Immunoprecipitation from HCT116 tumor homogenates, STAT3-exportin 7 interaction; assay type: binding; details: homogenates of HCT116 tumors from treated mice, Western blotting
T1 construct: homogenates prepared from HCT116 colon tumors from mice treated with PO- and PS-acet.-STAT3 peptides; from tissue; host or cells: HCT116 xenograft tumours grown in NSG mice
Experimental: (§1) Whole cell lysates or tissue homogenates were prepared by using RIPA lysis buffer (50 mM Tris at pH 7.4, 150 mM NaCl, 1 mM EDTA, 0.5% NP-40, 1 mM NaF, 15% glycerol, and 20 mM β-glycerophosphate). A protease inhibitor cocktail (Mini Protease Inhibitor Cocktail; Roche) and a tyrosine phosphatase inhibitor, sodium orthovanadate (Na3VO4, 1 mM), were added freshly to the lysis buffer. Protein amounts were determined by BCA using a Thermo Fisher Scientific kit. Normalized protein amounts were subjected to an SDS-PAGE and transferred onto a nitrocellulose membrane for Western blotting. Proteins were visualized with a chemiluminescent detection kit (Pierce, Thermo Fisher Scientific). The protein levels for STAT1 (sc-346, E-23), STAT3 (sc-482, C-20), STAT5 (sc-74442, A-9), Crm1 (exportin 1) (sc-5595, H-300), CAS (exportin 2) (sc-271537, H-2), exportin 5 (sc-66885, H-300), and exportin 7 (sc-98639, H-82) were determined using antibodies from Santa Cruz Biotechnology Inc. Anti–exportin 3 (exportin T, 630622, LOS1 05-1525), anti–exportin 4 (3499-1), and anti–exportin 6 (11408-1-AP) were from MilliporeSigma, Epitomics, and Proteintech, respectively. […]
(B) PS-acet.-STAT3 peptide downregulates STAT3 phosphorylation, assessed by Western blotting using tumor homogenates prepared from tumors shown in A. […]

[3] = test system: exportins 1–6; assay: Immunoprecipitation of FAM-labeled peptide and Western blotting, exportins 1–6; assay type: binding, human; details: anti-FITC (FAM) immunoprecipitation, Western blotting, U251 cells
Experimental: Data are representative of 3 independent experiments (n = 3).
as §1

T1 sequence (Q9UIA9 2-1087 limits assumed): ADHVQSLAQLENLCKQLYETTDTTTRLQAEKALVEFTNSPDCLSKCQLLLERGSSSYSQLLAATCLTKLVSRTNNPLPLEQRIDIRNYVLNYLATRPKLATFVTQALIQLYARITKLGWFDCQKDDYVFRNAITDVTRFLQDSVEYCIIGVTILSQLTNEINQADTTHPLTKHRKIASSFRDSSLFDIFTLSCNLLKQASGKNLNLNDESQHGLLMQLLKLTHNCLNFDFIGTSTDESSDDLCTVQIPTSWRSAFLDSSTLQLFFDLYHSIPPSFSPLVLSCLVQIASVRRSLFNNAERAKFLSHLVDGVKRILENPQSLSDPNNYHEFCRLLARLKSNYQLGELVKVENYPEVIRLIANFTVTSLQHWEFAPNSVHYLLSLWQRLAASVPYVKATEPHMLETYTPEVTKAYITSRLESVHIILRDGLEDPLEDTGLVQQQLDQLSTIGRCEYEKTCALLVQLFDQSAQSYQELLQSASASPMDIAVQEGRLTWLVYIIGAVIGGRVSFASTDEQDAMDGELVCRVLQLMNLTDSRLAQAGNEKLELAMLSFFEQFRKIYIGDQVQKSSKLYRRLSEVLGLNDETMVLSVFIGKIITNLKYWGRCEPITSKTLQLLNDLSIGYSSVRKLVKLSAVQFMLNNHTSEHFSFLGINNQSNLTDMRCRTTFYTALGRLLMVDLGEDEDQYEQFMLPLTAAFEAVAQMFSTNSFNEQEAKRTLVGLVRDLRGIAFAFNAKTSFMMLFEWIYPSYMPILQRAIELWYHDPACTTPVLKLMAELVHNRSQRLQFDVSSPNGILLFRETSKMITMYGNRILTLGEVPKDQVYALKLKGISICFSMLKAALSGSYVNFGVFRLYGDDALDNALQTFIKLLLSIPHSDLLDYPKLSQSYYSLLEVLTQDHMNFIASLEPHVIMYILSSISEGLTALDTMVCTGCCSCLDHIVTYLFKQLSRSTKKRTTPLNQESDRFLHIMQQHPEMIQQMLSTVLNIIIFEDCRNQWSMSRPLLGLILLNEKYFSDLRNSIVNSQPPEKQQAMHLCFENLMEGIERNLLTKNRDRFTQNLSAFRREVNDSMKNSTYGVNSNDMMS

## PDIPKEEAFGK685(Ac)YCRPESQEHPC-linker-T*C*C*A*T*G*A*G*C*T*T*C*C*T*G*A*T*G*C*T [PS-acet.-STAT3 peptide]
[1]; HCT116, approximately 1 μM
  expression of STAT3-regulated genes Survivin (BIRC5) and MYC, protein and mRNA: significant downregulation
[1]; HCT116 and LoVo, real-time quantitative PCR
  expression of STAT3-suppressed apoptotic genes TP53, CASP9, CASP3: upregulated
[2]
  STAT3 binding to exportin 7 in tumor tissues: blocked
  binding to exportin 7 in tumor tissues: bound
[3]
  binding to exportins 1–6: not
